The target in one data set is T1, NEP from canine kidney (Canis lupus familiaris, UniProt A0A8I3PBM8).
T1 construct: determined using NEP from canine kidney; from tissue; host or cells: canine kidney
T1 sequence (A0A8I3PBM8 1-749): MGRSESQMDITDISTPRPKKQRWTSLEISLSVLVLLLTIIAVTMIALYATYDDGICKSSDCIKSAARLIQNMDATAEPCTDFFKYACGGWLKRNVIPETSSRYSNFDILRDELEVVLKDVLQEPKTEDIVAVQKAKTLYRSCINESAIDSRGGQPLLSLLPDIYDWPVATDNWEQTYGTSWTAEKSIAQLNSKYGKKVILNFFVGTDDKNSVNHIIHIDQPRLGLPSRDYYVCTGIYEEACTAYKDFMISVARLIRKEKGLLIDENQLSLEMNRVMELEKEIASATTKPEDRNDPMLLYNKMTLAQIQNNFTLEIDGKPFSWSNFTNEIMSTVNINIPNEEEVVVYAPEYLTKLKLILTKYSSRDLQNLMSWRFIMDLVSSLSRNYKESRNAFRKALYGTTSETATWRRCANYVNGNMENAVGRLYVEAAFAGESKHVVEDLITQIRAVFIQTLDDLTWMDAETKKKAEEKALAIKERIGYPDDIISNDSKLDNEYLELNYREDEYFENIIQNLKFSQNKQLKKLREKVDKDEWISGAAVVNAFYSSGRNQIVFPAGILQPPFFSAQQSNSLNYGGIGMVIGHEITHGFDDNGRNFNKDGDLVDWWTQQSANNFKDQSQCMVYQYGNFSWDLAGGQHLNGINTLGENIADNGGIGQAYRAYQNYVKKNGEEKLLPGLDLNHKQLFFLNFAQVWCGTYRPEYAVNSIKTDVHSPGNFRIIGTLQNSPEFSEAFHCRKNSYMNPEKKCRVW
The data set is described as follows: IC50 against NEP (canine kidney). It is filed as biochemical. The protocol: The IC50 values presented below were determined using NEP from canine kidney.

[1] abbreviates: NEP from canine kidney, read-out: IC50 against NEP.

Counter-ions that a name gives are not always drawn. Like-named read-outs stand apart in the source and are kept apart here.

Data on seven compounds can be found in patent US6849649B2, “N-phenpropylcyclopentyl-substituted glutaramide derivatives as inhibitors of neutral endopeptidase” (Pfizer Inc., priority 2001, dated 2005).

With `COCCC(CC1(C(=O)NCCCc2ccc(OC)cc2)CCCC1)C(=O)O` (centres unmarked) (as salt: sodium) [Example 1, 4-Methoxy-2-{[1-({[3-(4-methoxyphenyl)propyl]amino}carbonyl)cyclopentyl]-methyl}butanoic acid], the melting point lay within 214 to 216 °C.
With `O=C(O)CCC1(C(=O)NCCCc2ccc3c(c2)CCO3)CCCC1` [Example 21], the melting point lay in the range of 94.5 to 97 °C. For the same compound, on NEP from canine kidney (setting [1]), the IC50 was 0.003 µM.
For the compound `COCCC(CC1(C(=O)NCCCc2ccc(F)cc2)CCCC1)C(=O)O` (centres unmarked) [Example 4, 2-{[1-({[3-(4-fluorophenyl)propyl]amino}carbonyl)cyclopentyl]methyl}-4-methoxybutanoic acid], at NEP from canine kidney, the IC50 is 0.004 µM.
For `CC(CCNC(=O)C1(CCC(=O)O)CCCC1)c1ccc2c(c1)CCO2` (centres unmarked) [Example 51], at NEP from canine kidney (setting [1]), the IC50 amounted to 0.009 µM.
On the same count and under the same terms, then `O=C(O)CCC1(C(=O)NCCCc2cccc3ccccc23)CCCC1` [Example 33], with 0.047 µM; and `COCC[C@H](CC1(C(=O)NCCCc2ccc3c(c2)OCCO3)CCCC1)C(=O)O` [Example 43], with 0.029 µM.
Turning to `COCCC(CC1(C(=O)NC(C)COc2ccccc2Cl)CCCC1)C(=O)O` (centres unmarked) [Example 3], at NEP from canine kidney (setting [1]), the concentration for half-maximal inhibition (IC50) is 0.022 µM.

A word on the melting point: it is the temperature, or range, at which the solid turns liquid. Usually IC50 stands for the concentration at which inhibition is half-maximal.
